In ChEMBL document CHEMBL1133989, “Which aminoglycoside ring is most important for binding? A hydropathic analysis of gentamicin, paromomycin, and analogues” (Bioorg Med Chem Lett, 2001):

test system: Ribosomal RNA A-site; assay: Binding affinity of aminoglycoside to 16S ribosomal RNA A-site in Escherichia coli; format: nucleic-acid assay

Compared with `NC[C@H]1O[C@H](O[C@H]2[C@H](O[C@@H]3O[C@H](CO)[C@@H](O)[C@H]3O)[C@@H](O)[C@H](N)C[C@@H]2N)[C@H](N)[C@@H](O)[C@@H]1O` [RIBOSTAMYCIN], `NC[C@H]1O[C@H](O[C@H]2[C@H](O)[C@@H](O[C@H]3O[C@H](CO)[C@@H](O)[C@H](N)[C@H]3O)[C@H](N)C[C@@H]2N)[C@H](N)[C@@H](O)[C@@H]1O` [BEKANAMYCIN] is 18-fold lower in Kd: 25000 nM for the first, 1400 nM for the second.

`N[C@H]1[C@@H](O[C@H]2[C@H](O)[C@@H](O)[C@H](N)C[C@@H]2N)O[C@H](CO)[C@@H](O)[C@@H]1O` [PAROMAMINE] and `NC[C@H]1O[C@H](O[C@H]2[C@H](O)[C@@H](O)[C@H](N)C[C@@H]2N)[C@H](N)[C@@H](O)[C@@H]1O` [NEAMINE] cannot be ordered by Kd: less than 100000 nM for the first, 7800 nM for the second.

Compared with `NCCC1C(CO)OC(OC2C(O)C(N)CC(N)C2OC2OC(CN)C(O)C(O)C2N)C1O` (stereo not drawn), `NCCCNCC[C@H]1[C@@H](O)[C@H](O[C@H]2[C@@H](O)[C@H](N)C[C@H](N)[C@H]2O[C@H]2O[C@H](CN)[C@H](O)[C@H](O)[C@H]2N)O[C@@H]1CO` is 6.5-fold lower in Kd: 1700 nM for the first, 260 nM for the second.

Going from `NCCC(O)C(=O)N[C@@H]1C[C@H](N)[C@@H](O[C@H]2O[C@H](CN)[C@@H](O)[C@H](O)[C@H]2N)[C@@H](O[C@@H]2O[C@H](CO)[C@@H](O)[C@H]2O)[C@H]1O` (stereo partly drawn) [BUTIROSIN B] to `NC[C@@H]1O[C@@H](O[C@H]2[C@H](O)[C@@H](O[C@H]3O[C@H](CO)[C@@H](O)[C@H](N)[C@H]3O)[C@H](N)C[C@@H]2N)[C@@H](O)[C@H](O)[C@H]1O` [KANAMYCIN A], the Kd falls from 27000 nM to 18000 nM (1.5-fold). The second binds more tightly here.

Compared with `NC[C@@H]1O[C@H](O[C@H]2[C@@H](O)[C@H](O[C@@H]3[C@@H](O)[C@H](N)C[C@H](N)[C@H]3O[C@H]3O[C@H](CO)[C@@H](O)[C@H](O)[C@H]3N)O[C@@H]2CO)[C@H](N)[C@@H](O)[C@@H]1O` [PAROMOMYCIN], `NC[C@@H]1O[C@H](O[C@H]2[C@@H](O)[C@H](O[C@@H]3[C@@H](O)[C@H](N)C[C@H](N)[C@H]3O[C@H]3O[C@H](CN)[C@@H](O)[C@H](O)[C@H]3N)O[C@@H]2CO)[C@H](N)[C@@H](O)[C@@H]1O` [FRAMYCETIN] is 11-fold lower in Kd: 200 nM for the first, 19 nM for the second. The second binds more tightly here.

Compared with `NCC1OC(OC2C(N)CC(N)C(O)C2OC2OC(CO)C(OC3OC(CN)C(O)C(O)C3O)C2O)C(N)C(O)C1O` (stereo not drawn), `NC[C@H]1O[C@H](O[C@H]2[C@@H](O[C@@H]3O[C@H](CO)[C@@H](O[C@@H]4O[C@H](CO)[C@H](O)[C@H](O)[C@H]4O)[C@H]3O)[C@@H](O)[C@H](N)C[C@@H]2N)[C@H](N)[C@H](O)[C@@H]1O` is 40-fold higher in Kd: 700 nM for the first, 28000 nM for the second.

`NC[C@H]1O[C@H](O[C@H]2[C@H](O)[C@@H](O[C@H]3O[C@H](CO)[C@@H](O)[C@H](N)[C@H]3O)[C@H](N)C[C@@H]2N)[C@H](N)C[C@@H]1O` [TOBRAMYCIN] was tested, and the Kd was 1500 nM.
